According to patent US20250345350A1, “TREATING PAIN ASSOCIATED WITH CENTRAL SENSITIZATION” (Medicon Pharmaceuticals, Inc., priority 2022, published 2025):
Several values for one entry are separate records, joined by “and”; a condition that tells them apart may be missing. Equal values may be shown once.

How the values were obtained:
[1] = tested on: NTG-induced chronic migraine in mice; assay: PWT (von Frey), NTG-induced chronic migraine model, oral (Example 16)
Protocol: In particular, mice receive sublingual NTG 0.4 mg in the form of a finely crushed 0.4 mg NTG tablet (Greenstone Brand) every two days, receiving a total of five doses. For control mice, an NTG placebo (Practi-Nitroglycerin Sublingual 0.4 mg Simulated Medication tablet) was administered in the same way.
Group 1: placebo NTG (i.e, no NTG treatment, n=8) • 2. Group 2: NTG (n=8) • 3. Group 3: NTG+vehicle (n=8) • 4. […] Group 5: NTG+sulindac (n=8)
Mechanical allodynia was determined using von Frey filaments in line with that performed in the earlier Examples. The PWT test was performed prior to NTG (or placebo NTG) administration to determine baseline values, as indicated. […] The mechanical threshold, expressed as g, indicates the force of the von Frey filament to which the animal reacted.

[2] = tested on: NTG-induced migraine in C57BL/6J mice; assay: PWT (von Frey), NTG-induced migraine mouse model, topical (Example 13); conditions: confirmation of NTG model
Protocol: Specifically, instead of the intraperitoneal injection of NTG, a finely crushed 0.4 mg NTG tablet (Greenstone Brand) was administered sublingually. As a control, a Practi-Nitroglycerin Sublingual 0.4 mg Simulated Medication tablet was used.
For determining mechanical allodynia, pain threshold responses were measured using the well-established method of von Frey filaments in line with that performed in the earlier Examples.
The PWT test, assessing mechanical allodynia, was performed 30 minutes after treatment. The mechanical threshold, expressed as g, indicates the force of the von Frey filament to which the animal reacted.

[3] = tested on: STZ-induced central sensitization in Sprague-Dawley rats; assay: PWT (von Frey), streptozotocin rat model of central sensitization (Example 4); format: in vivo
Protocol: Sprague-Dawley rats were fasted for 4-6 hours before being injected intraperitoneally with 45 mg/kg STZ. This was performed for all experimental groups, except the naive group. In order to prevent hypoglycaemic death, rats received 10% sucrose water as the sole water source for the first 48 hours after injection. In order to ensure only those rats considered diabetic (i.e., having non-fasting plasma glucose levels of >250 mg/dL) were included in the study, blood glucose was measured at 72 hours after the STZ injection.
Four weeks after STZ injection, the rats were randomised into treatment groups. This delay between STZ injection and treatment allows the establishment of chronic pain (allodynia) associated with central sensitization. […] 5% lidocaine cream (positive control) was applied only once to both hind paws of the rats 30 minutes before measurement of PWT.
The rats were split into 8 study groups, with those in the experimental groups (1-4) having an average body weight of about 225 g, and those in the control groups (5-8) having an average body weight of about 335 g, as follows: • 1. Group 1: naive rats (n=5) • 2. Group 2: STZ only (n=6) • 3. Group 3: STZ plus vehicle (n=6) • 4. […] Group 5: STZ plus oral vehicle (n=8) • 6. Group 6: STZ plus 0.7% sulindac hydrogel (n=7) • 7. Group 7: STZ plus 5% lidocaine cream (n=8) • 8.

[4] = tested on: paclitaxel-induced central sensitization in C57/BL/6J mice
Protocol: Regarding the treatment with lidocaine: 5% lidocaine cream (a positive control) was applied once to both hind paws of the mice 30 minutes before measurement of PWT.
Briefly, for mechanical allodynia, pain threshold responses were measured using the well-established method of von Frey filaments in line with that performed in the earlier Examples. The PWT test was performed on day-8 (before the first dose of paclitaxel), the day of starting treatment (day 0, at which central sensitization was fully established) and day 14 (treatment continued until day 15). The mechanical threshold, expressed as g, indicates the force of the von Frey filament to which the animal reacted.

[5] = tested on: chronic constriction injury-induced peripheral neuropathy in C57BL/6J mice; assay: PWT (von Frey), chronic constriction injury model of PTPN, topical (Example 7); conditions: day 14, PS 5% gel or sulindac 0.7% gel on left paw three times a day for 14 days, pregabalin once by oral gavage 1 h before
Protocol: Group 1: ligation only (i.e, surgical control with no treatment, n=5-7) • 2. Group 2: vehicle control (n=5-7) • 3. […] Group 4: 0.7% sulindac (n=5-7) • 5.
Briefly, for determining mechanical allodynia, pain threshold responses were measured using the well-established method of von Frey filaments in line with that performed in the earlier Examples. The PWT test was performed on day 14. The mechanical threshold, expressed as g, indicates the force of the von Frey filament to which the animal reacted.

[6] = tested on: vincristine-induced pain associated with central sensitization in C57BL/6J mice; assay: Mechanical allodynia (von Frey), vincristine-induced pain, topical PS 8% (Example 2); format: in vivo, mouse
Source text: (§1) Food and water were available ad libitum.
(§2) Protocol for the Treatment of Established Pain Associated with Central Sensitization with PS
(§3) Paw withdrawn, licking or shaking were considered positive responses.

[7] = tested on: paclitaxel-induced pain associated with central sensitization in C57BL/6J mice; assay: Mechanical allodynia (von Frey), paclitaxel-induced pain, topical PS 8% (Example 2); format: in vivo, mouse
Source text: as §1, §3

[8] = tested on: paclitaxel-induced central sensitization in C57/BL/6J mice; assay: Cold allodynia (acetone test), paclitaxel model (Example 3); format: in vivo, mouse; conditions: after paclitaxel treatment
Protocol: To determine the outcome of treatment, assessment of mechanical allodynia was performed. […] Both methods of assessing allodynia are described in Toma W, et al. Neuropharmacology 2017; 117:305-15. Mechanical and cold allodynia are determined at least one day apart in the same animal.
The acetone test was used. Briefly, acetone was applied onto the plantar surface of each hind paw. The time each mouse spent licking, lifting, and/or shaking the hind paw recorded over 60 seconds was the score for cold allodynia. Measurements were performed on day-8 (before the first paclitaxel injection), the day of starting treatment (day 0) and then on day 15.

[9] = tested on: paclitaxel-induced CIPN in C57BL/6J mice; assay: PWT (von Frey), mouse model of CIPN, oral administration (Example 5); format: in vivo; conditions: day 7; oral gavage three times a day for 7 days, PS 50 mg/kg, sulindac 33 mg/kg
Source text: CIPN was induced in mice with chemotherapeutic agents using established protocols (Carozzi et al, 2010; Currie et al, 2019; Eldridge et al, 2020). […] This dosing regimen of paclitaxel produces pain associated with CIPN with time courses that are similar to those of pain after paclitaxel administration in cancer patients.
Group 1: naive mice (i.e. no paclitaxel, n=8) • 2. Group 2: paclitaxel only (n=8) • 3. Group 3: paclitaxel plus vehicle (n=8) • 4. […] Group 5: paclitaxel plus sulindac (n=8)
The PWT test was performed on day 7.

[10] = tested on: paclitaxel-induced central sensitization in C57/BL mice; assay: Paw withdrawal threshold (von Frey), paclitaxel model, topical PS (Example 1); conditions: day 10, about 30 min after last application; PS 8% hydrogel topically to both hind paws 3 times a day for 10 days
[11] = PS and metabolites in proximal and distal half of the sciatic nerve (Example 25); format: in vivo, mouse; conditions: mouse, in vivo
Protocol: In a separate experiment we studied 8 mice with paclitaxel-induced PN treated with PS 8% ointment 3×/d for 2 wks. Mice were euthanized as above 30 minutes after the last dose of PS. From these mice we harvested both sciatic nerves dividing each into proximal and distal halves, and combined the corresponding halves of every two animals for assay of drug levels.

[12] = tested on: oxaliplatin-induced pain associated with central sensitization in C57BL/6J mice; assay: Mechanical allodynia (von Frey), oxaliplatin-induced pain, topical PS 8% (Example 2); format: in vivo, mouse; conditions: day 0, in the two study groups respectively; cumulative 30 mg/kg i.p.
Source text: as §1, §2, §3

[13] = tested on: NTG-induced chronic migraine in mice; assay: PWT (von Frey), NTG-induced chronic migraine model, intraperitoneal topiramate and sumatriptan (Example 17); format: in vivo, mouse
Protocol: The NTG-induced chronic migraine model was used as described previously.
sumatriptan (600 μg/kg), or vehicle was administered.
. Group 1: NTG+vehicle (n=8) • 2. Group 2: NTG+topiramate (n=8) • 3. Group 3: NTG+sumatriptan (n=8)

[14] = tested on: NTG-induced migraine in mice; assay: PWT (von Frey), NTG-induced migraine mouse model, intraperitoneal clinical compounds (Example 15); conditions: 30 min after single i.p. dose given 30 min after NTG; topiramate 30 mg/kg, sumatriptan 600 μg/kg, propranolol 10 mg/kg, gabapentin 30 mg/kg
Protocol: In line with the earlier Examples, migraine was induced using 0.4 mg of NTG administered sublingually in the form of a finely crushed 0.4 mg NTG tablet (Greenstone Brand).
A single intraperitoneal dose of topiramate (30 mg/kg), sumatriptan (600 μg/kg), propranolol (10 mg/kg), gabapentin (30 mg/kg) or vehicle was administered 30 min after the induction of migraine, at the indicated doses.
Group 1: baseline (i.e, no NTG treatment) • 2. Group 2: vehicle • 3. Group 3: topimarate • 4. Group 4: sumatriptan • 5. Group 5: propanolol • 6. Group 6: gabapentin
Mechanical allodynia was determined using the method of von Frey filaments in line with that performed in the earlier Examples. The PWT test was performed 30 minutes after compound or vehicle control administration. The mechanical threshold, expressed as g, indicates the force of the von Frey filament to which the animal reacted.

[15] = Baseline, prior to NTG administration
[16] = Post-compound administration, 30 min after single i.p. dose, topiramate 30 mg/kg, sumatriptan 600 μg/kg

O=[N+]([O-])OCC(CO[N+](=O)[O-])O[N+](=O)[O-] [NTG, nitroglycerin]
PWT, g Mean ± SEM [1, 15]: 1.95 ± 0.18 g
PWT, g Mean ± SEM ([1]; Day 11, orally once a day for 11 days concurrent with NTG, PS 50 mg/kg, sulindac 33 mg/kg): 0.66 ± 0.11 g
PWT, g 30 min Mean ± SEM ([2]; 30 min after sublingual NTG 0.4 mg): 0.70 ± 0.12 g
PWT, g 60 min Mean ± SEM ([2]; 60 min after sublingual NTG 0.4 mg): 0.51 ± 0.05 g

CCN(CC)CC(=O)Nc1c(C)cccc1C [lidocaine]
PWT, gm Mean ± SEM ([3]; 0.7% sulindac hydrogel 3 times a day for 1 week, 5% lidocaine cream once 30 min before, pregabalin 10 mg/kg orally once 1 h before): 26.0 ± 1.8 gm
PWT, g Mean ± SEM ([4]; day 14, PS hydrogel 5% or 0.7% sulindac 3 times a day, 5% lidocaine cream once 30 min before, pregabalin 10 mg/kg orally once 1 h before): 1.48 ± 0.12 g

CC(C)C[C@H](CN)CC(=O)O [pregabalin, reference compound]
PWT, g Mean ± SEM [5]: 1.1 ± 0.10 g
PWT, g Mean ± SEM ([5]; listed as Pregabalin): 1.1 ± 0.10 g

CC[C@]1(O)C[C@H]2CN(CCc3c([nH]c4ccccc34)[C@@](C(=O)OC)(c3cc4c(cc3OC)N(C=O)[C@H]3[C@@](O)(C(=O)OC)[C@H](OC(C)=O)[C@]5(CC)C=CCN6CC[C@]43[C@@H]65)C2)C1 [vincristine]
mechanical allodynia score, mean±SEM ([6]; day 0): 0.7 ± 0.07 g
reduction of mechanical allodynia score by vincristine ([6]; day 0 vs day -7, three groups, cumulative 3 mg/kg i.p.): 61%-65%
mechanical allodynia score, mean±SEM ([6]; day 16): 0.8 ± 0.09 g

CC(=O)O[C@H]1C(=O)[C@@]2(C)[C@H]([C@H](OC(=O)c3ccccc3)[C@]3(O)C[C@H](OC(=O)[C@H](O)[C@@H](NC(=O)c4ccccc4)c4ccccc4)C(C)=C1C3(C)C)[C@]1(OC(C)=O)CO[C@@H]1C[C@@H]2O [Paclitaxel, paclitaxel, reference compound]
mechanical allodynia score, mean±SEM ([7]; day 0 (initiation of treatment), paclitaxel-induced pain): 0.78 ± 0.08 g
mechanical allodynia score, mean±SEM ([7]; day 16, PS 8% ointment 3x/day to hind paws): 0.57 ± 0.05 g
reduction of mechanical allodynia scores by paclitaxel ([7]; paclitaxel administered over 12 days, cumulative 32 mg/kg i.p.): ~85%
cold allodynia score (acetone test) [8]: 7.1 ± 0.4 s
PWT, g Mean ± SEM [9]: 0.53 ± 0.03 g
mechanical allodynia score, mean±SEM ([4]; day 0, after paclitaxel, central sensitization fully established): 0.55 ± 0.05 g
PWT, % baseline Mean ± SEM [10]: 86.75 ± 5.42 % baseline

CC1=C(CC(=O)O)c2cc(F)ccc2/C1=C\c1ccc(S(C)(=O)=O)cc1 [Sulindac sulfone, sulindac sulfone]
Distal half of sciatic nerve, mean ± SEM [11]: 0.9 ± 0.2 µM
Fold difference (distal vs proximal) [11]: 4.5 fold
Proximal half of sciatic nerve, μM, mean ± SEM [11]: 0.2 ± 0.08 µM

CN(N=O)C(=O)N[C@H]1C(O)O[C@H](CO)[C@@H](O)[C@@H]1O (mixture of isomers) [STZ, streptozotocin]
PWT, gm Mean ± SEM ([3]; week 7, PS 8% hydrogel to both hind paws 3 times a day for 3 weeks from week 4 after STZ): 15.7 ± 0.84 gm

O=C1[O][Pt]2([NH][C@@H]3CCCC[C@H]3[NH]2)[O]C1=O [oxaliplatin, reference compound]
reduction of allodynia score during oxaliplatin administration [12]: 65% and 56%

CNS(=O)(=O)Cc1ccc2[nH]cc(CCN(C)C)c2c1 [Sumatriptan, sumatriptan]
PWT, g Mean ± SEM [13, 15]: 1.90 ± 0.06 g
PWT, g Mean ± SEM ([13]; Day 12 (pre-treatment)): 0.57 ± 0.02 g
PWT, g Mean ± SEM [13, 16]: 1.33 ± 0.17 g
PWT, g Mean ± SEM [14]: 1.34 ± 0.12 g

CC1(C)O[C@@H]2[C@@H](CO[C@@]3(COS(N)(=O)=O)OC(C)(C)O[C@@H]23)O1 [Topiramate, topiramate]
PWT, g Mean ± SEM [13, 15]: 2.40 ± 0.24 g
PWT, g Mean ± SEM ([13]; Day 12 (pre-treatment)): 0.60 ± 0.00 g
PWT, g Mean ± SEM [13, 16]: 1.76 ± 0.11 g
PWT, g Mean ± SEM [14]: 1.40 ± 0.14 g

CC(C)NCC(O)COc1cccc2ccccc12 (stereo not drawn) [Propanolol, propranolol]
PWT, g Mean ± SEM [14]: 1.37 ± 0.14 g

NCC1(CC(=O)O)CCCCC1 [Gabapentin, gabapentin]
PWT, g Mean ± SEM [14]: 1.44 ± 0.25 g
